According to patent US20060004086A1, “Method of reducing Abeta42 and treating diseases” (Mayo Foundation for Medical Education and Research, priority 2000, published 2006):
Read-outs that look alike come from different tables or passages of the source.

Tests used:
Aβ42 production = Aβ42 production in APP695-transfected H4 cells; assay type: cell-based, human
Method: In a tertiary screen, Aβ production, sAPP production, and toxicity in a human H4 neuroglioma cell line that expressed APP are examined for all FDA-approved NSAIDs and novel NSAIDs that selectively reduce Aβ42 levels. Three doses of each NSAID are tested. The first is a dose that is expected to cause maximum reduction of Aβ42 levels. The second dose is one that reduces Aβ42 levels by 50% of the maximum value, while the third dose is one that reduces Aβ42 levels by 10-20% of the maximum value.

Aβ42 secretion [1] = test: Primary in vitro screen, CHO-APP695NL,I,his cells, end-specific Aβ40 and Aβ42 ELISAs; assay type: cell-based, Chinese hamster; settings: for activity at 100 µM / activity at 10 µM: Cricetulus griseus, 6 h
Method: Aβ40 and Aβ42 levels in culture supernatants were determined for each time points using ELISA.
In a primary screen, the effects of NSAIDs on Aβ42 secretion by a CHO cell line that expressed APP(CHO-APP695NL,I,his) were examined. Duplicate cell cultures were treated with (a) a vehicle, (b) 10 μM of NSAID, or (c) 100 μM of NSAID.
To determine Aβ40 and Aβ42 levels, six-hour culture supernatants taken from cells grown in a single well of a twenty-four-well plate were used in end-specific Aβ40 and Aβ42 ELISAs (Suzuki, et al. (1994) Sci 264:[…]). Aβ40 and Aβ42 levels of cultures treated with NSAID were compared with those of cultures treated with the vehicle alone. […] NSAIDs that caused either selective reduction of Aβ42 levels or reduction in both Aβ40 and Aβ42 levels are subjected to a secondary screen.

[2] = plasma concentration of the drug; cited from earlier work
Aβ42 secretion [3] = test: Non-selective and selective COX-inhibitors tested for effect on Aβ42 levels in cell cultures (Table 1 summary); assay type: cell-based; settings: cell cultures, cell line and concentration not stated
Method: All measurements were performed in duplicate.
Aβ40 and Aβ42 levels in cell culture supernatants were analyzed using ELISA. Aβ42/Aβ40 ratios and total Aβ levels were normalized to values obtained from DMSO-treated cultures. […] NSAIDs were verified using NMR and mass spectrometry.

[4] = system: brain Aβ42 levels in Tg2576 mice; test: Acute oral dosing of three-month-old Tg2576 mice, brain Aβ ELISA; assay type: in vivo, mouse; settings: three-month old Tg2576 mice; 100 mg/kg/day orally for three days; compared with vehicle
Method: NSAIDs were dissolved in an appropriate vehicle. Dimethyl sulfoxide (DMSO), ethanol, and ethyl acetate are some examples. The NSAID solution was mixed with Kool-Aid and administered orally using a medicine dropper. […] At two hours after the final doses were administered, animals were sacrificed, and SDS soluble Aβ40 and Aβ42 were analyzed using ELISA.
Three month old mice have high levels of soluble Aβ in the brain but no Aβ deposition (see Hsiao et al. (1996) Science 274:99-102). […] Brain levels of SDS-soluble Aβ40 and Aβ42 were measured using ELISA.
Compounds were administered orally.

[5] = 10 μM, six-hour culture supernatants
[6] = 100 μM, six-hour culture supernatants, read-out: % Control % Aβ42
[7] = 100 μM, six-hour culture supernatants, read-out: % Control Aβ40
[8] = 100 μM, six-hour culture supernatants, read-out: % Control Aβ42
[9] = 100 μM, six-hour culture supernatants

Row | SMILES | activity at 100 µM (Aβ42 secretion [1]; [6]) | activity at 100 µM (Aβ42 secretion [1]; [7]) | activity at 100 µM (Aβ42 secretion [1]; [8]) | further results
1 | CC(C(=O)O)c1ccc(-c2ccccc2)c(F)c1 (racemic) [Flurbiprofen, flurbiprofen] | – | – | – | levels of Aβ40 production (Aβ42 production): not altered; Aβ42 levels lowered by (Aβ42 production; 100 μM): 50%
2 | CCCCC#CCSc1ccccc1OC(C)=O [APHS] | – | – | – | % Control % Aβ42 (Aβ42 secretion [1]; [5]): 178%; % Control Aβ40 (Aβ42 secretion [1]; [5]): 50%; % Control Aβ42 (Aβ42 secretion [1]; [5]): 114%
3 | COc1ccc2c(c1)c(CC(=O)OCC(=O)O)c(C)n2C(=O)c1ccc(Cl)cc1 [Acemetacin] | 93% | 110% | 101% | –
4 | CN(C)CCCOc1nn(Cc2ccccc2)c2ccccc12 [Benzydamine] | 132% | 90% | 128% | –
5 | CC(C(=O)O)c1ccc2c(c1)[nH]c1ccc(Cl)cc12 (stereo not shown) [Carprofen] | 86% | 58% | 48% | –
6 | Cc1ccc(-c2cc(C(F)(F)F)nn2-c2ccc(S(N)(=O)=O)cc2)cc1 [Celecoxib, celecoxib] | – | – | – | Plasma [2]: 0.015 µM
7 | O=C(O)Cc1ccccc1Nc1c(Cl)cccc1Cl [Diclofenac] | 100% | 88% | 87% | total Aβ levels (Aβ42 secretion [3]): did not affect; Plasma [2]: 6.1 µM
8 | CCc1cccc2c3c([nH]c12)C(CC)(CC(=O)O)OCC3 (stereo not shown) [Etodolac] | 120% | 85% | 109% | –
9 | O=C(O)CCC(=O)c1ccc(-c2ccccc2)cc1 [Fenbufen] | 107% | 100% | 109% | –
10 | CC(C(=O)O)c1cccc(Oc2ccccc2)c1 (stereo not shown) [Fenoprofen, fenoprofen] | 63% | 102% | 60% | –
11 | O=C(O)c1ccccc1Nc1cccc(C(F)(F)F)c1 [Flufenamic Acid, flufenamic acid] | – | – | – | selective reduction of Aβ42 levels in the primary screen (Aβ42 secretion [1]; 10 μM or 100 μM, classification on a 20% change): selectively reduced Aβ42 levels; activity at 10 µM (Aβ42 secretion [1]; 10 μM, six-hour culture supernatants, read-out: % Control % Aβ42): 70%; activity at 10 µM (Aβ42 secretion [1]; 10 μM, six-hour culture supernatants, read-out: % Control Aβ40): 99%; activity at 10 µM (Aβ42 secretion [1]; 10 μM, six-hour culture supernatants, read-out: % Control Aβ42): 64%
12 | CC(C(=O)O)c1ccc(-c2ccccc2)c(F)c1 (stereo not shown) [Flurbiprofen, flurbiprofen] | – | – | – | brain Aβ42 levels [4]: lower Aβ42 levels; activity at 100 µM (Aβ42 secretion [1]; read-out: % Control % Aβ42): 80%; activity at 100 µM (Aβ42 secretion [1]; read-out: % Control Aβ40): 93%; activity at 100 µM (Aβ42 secretion [1]; read-out: % Control Aβ42): 70%
13 | Cc1ccc(C(C)C)cc2c(C)ccc1-2 [Guaiazulene] | 156% | 70% | 124% | –
14 | CC(C(=O)O)c1ccc(N2Cc3ccccc3C2=O)cc1 (stereo not shown) [Indoprofen] | 107% | 116% | 126% | –
15 | Cc1cc(NC(=O)C2=C(O)c3ccccc3S(=O)(=O)N2C)no1 [Isoixicam] | – | – | – | % Control % Aβ42 (Aβ42 secretion [1]; [9]): 103%; % Control Aβ40 (Aβ42 secretion [1]; [9]): 109%; % Control Aβ42 (Aβ42 secretion [1]; [9]): 112%
16 | CC(C(=O)O)c1cccc(C(=O)c2ccccc2)c1 (stereo not shown) [Ketoprofen] | 117% | 88% | 107% | –
